According to patent publication US9517230B2, “Small molecule RNase inhibitors and methods of use” (UNIVERSITY OF ROCHESTER, priority 2011, dated 2016):
Entries after “also recorded” stand apart in the source; their conditions may differ.

Key:
MRSA = experiment: Antimicrobial susceptibility testing, broth microdilution (CLSI); type: cell-based, Staphylococcus aureus; details: 18 hr at 37° C.
Description: In some examples, compounds can be further assayed using the Mueller Hinton (MH) broth antibacterial assay as specified by the Clinical and Laboratory Standards Institute MIC broth microdilution protocol (see Methods for Dilution Antimicrobial Susceptibility Tests for Bacteria That Grow Aerobically; Approved Standard, In The Clinical and Laboratory Standards Institute (CLSI, formerly NCCLS), 7th ed., January 2006, 26 (2), M7-A7; see also Performance Standards for Antimicrobial Susceptibility Testing; Eighteenth Informational Supplement, In The Clinical and Laboratory Standards Institute (CLSI, formerly NCCLS), January 2008, 28 (1), M100-S18).
Microtiter plates containing serial dilutions of the compounds 1000 (0, 4, 8, 16, 32, 64, and 128 μg/ml) were inoculated with 10^5 colony forming units (CFU)/ml and incubated for 18 hr at 37° C.

S. aureus RnpA = biological target: T1, S. aureus RnpA (Staphylococcus aureus, UniProt P0A0H5); experiment: RnpA-mediated RNA (spa mRNA) degradation inhibitory titration assay; type: biochemical; details: for IC50: 1 pmol spa mRNA, 20 pmol RnpA, one hour at 37° C., agarose gel, read-out: apparent IC50
T1 construct: hexahistidine-tag (pET-30 Ek/LIC leader) (N); made in house; host or cells: E. coli BL21 (DE3)
T1 sequence (P0A0H5 1-117): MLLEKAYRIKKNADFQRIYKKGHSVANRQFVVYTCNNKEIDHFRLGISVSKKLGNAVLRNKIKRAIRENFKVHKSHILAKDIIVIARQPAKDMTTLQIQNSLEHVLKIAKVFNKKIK
Method: Specifically, members of the ActiProbe-25K and Natural Product libraries (29,940 compounds total; TimTec Inc.; Newark, Del.) were screened for small molecule inhibitors of S. aureus RnpA mediated total bacterial RNA degradation. All reactions (50 μl) were performed in 96-well format and contained 20 pmol RnpA, 200 ng S. aureus total RNA, and ˜5 μM of each compound in 1× reaction buffer (2 mM NaCl, 2 mM MgCl2, 50 mM Tris-HCl, pH 6.0). Mixtures were incubated at 37° C. for 20 min at which time Quant-iT RiboGreen® (100 μl; Invitrogen) was added to quantify the amount of RNA substrate remaining. Percent enzyme inhibition was calculated as remaining substrate/starting substrate*100. For inhibitory titration assays, 1 pmol of spa mRNA was incubated with 20 pmol RnpA alone (positive control) or in the presence of one of four compounds for one hour at 37° C. […] Following this, 20 μl of each reaction mixture were subjected to electrophoresis in a 1.2% formaldehyde-containing agarose gel and visualized by ethidium bromide staining.

HepG2 human hepatocytes = experiment: HepG2 MTT cytotoxicity assay; type: cell-based; details: 1×, 2×, 4× the MIC value for 48 hours
Method: It was then assessed whether RnpA-inhibitory agent concentrations corresponding to the effective bacterial MIC values (10-50 μg/ml) elicited human cell cytotoxicity. HepG2 human hepatocytes (10^5 cells) were seeded in individual wells of a microtitre plate and incubated for 16 hr at 37° C. with 5% carbon dioxide in Dulbecco's Modified Eagle Media supplemented with 10% fetal bovine serum. Cells were then challenged with Mitomycin C (5 or 10 μg/ml; positive control) or 1, 2, or 4 times (1×, 2×, 4×) the MIC value of the indicated RnpA inhibitory compound for 48 hours. Cell viability was measured spectrophotometrically (570 nm) following the addition and subsequent reduction of tetrazolium salt (MTT) within metabolically active cells, as per the manufacturer's recommendations (American Type Culture Collection; Manassas, Va.).

IC50 (S. aureus RnpA) [µM]	Compound	antimicrobial activity against MRSA (in words) (MRSA)	inhibition of RnpA-mediated RNA degradation (in words) (S. aureus RnpA)	human cell cytotoxicity / cell survival (in words) (HepG2 human hepatocytes)	human cell cytotoxicity / cell survival (in words) (HepG2 human hepatocytes; listed as ST003531)	human cell cytotoxicity / cell survival (in words) (HepG2 human hepatocytes; listed as ST006630)
15 to 20	CC(C)c1ccc(OCC(=O)NNC(=S)NC(=O)c2ccco2)cc1 [RNPA-2000]	moderate antimicrobial activity; also recorded: good antistaphylococcal activity	inhibit RnpA-mediated RNA degradation; also recorded: excellent RnpA-inhibitory activity	do not cause human cytotoxicity	did not affect human cell survival	
12.5 to 20	O=C(O)CCN1C(=O)/C(=C\c2ccc(-c3ccc(Cl)cc3)o2)SC1=S [RNPA-3000]	moderate antimicrobial activity; also recorded: good antistaphylococcal activity	inhibit RnpA-mediated RNA degradation; also recorded: excellent RnpA-inhibitory activity	do not cause human cytotoxicity		did not affect human cell survival
